Values after ≈ are worked out from the molar mass of the structure shown. “Also recorded” adds a separate entry of the source. Where two headings read alike, the source gives them in different places.
Legend:
cancer cells = assay: Cytotoxicity to cancer cells; type: cell-based
NF-κB = assay: NF-κB-luciferase reporter in mixed cultures of primary astrocytes and microglia; type: cell-based, mice; conditions: 1 μM, 10 μM and 100 μM, 3 hours; then Poly I:C, LPS or TNFα for 24 h
[1] = tested on: Mycobacterium tuberculosis virulent standard strain H37Rv; assay: Standard resazurin-resorufin assay versus M. tuberculosis H37Rv; type: cell-based
[2] = tested on: Proteus vulgaris ATCC 881; conditions: cited from earlier work
[3] = tested on: Mycobacterium tuberculosis ATCC 9360 H37Rv; conditions: cited from earlier work
[4] = tested on: Klebsiella pneumoniae ATCC 10031; conditions: cited from earlier work
[5] = in vivo; cited from earlier work
[6] = tested on: Streptococcus haemolyticus = S. pyogenes C 203; conditions: Streptococcus haemolyticus C 203, cited from earlier work
[7] = tested on: Diplococcus pneumoniae = Streptococcus pneumoniae U.C. 41; conditions: Diplococcus pneumoniae U.C. 41; cited from earlier work
[8] = tested on: Staphylococcus aureus ATCC 6538; conditions: cited from earlier work
[9] = tested on: Staphylococcus aureus Tour; conditions: cited from earlier work
[10] = tested on: Pseudomonas aeruginosa ATCC 10145; conditions: cited from earlier work
[11] = cited from earlier work
[12] = tested on: Staphylococcus aureus infection; conditions: cited from earlier work
[13] = tested on: Staphylococcus aureus Tour Rif-resistant; conditions: cited from earlier work
[14] = tested on: Escherichia coli ATCC 10536; conditions: cited from earlier work
[15] = Chemical stability (atmospheric oxygen, hydrolysis, UV light)
Bacillus megaterium = assay: Activity versus Bacillus megaterium; type: cell-based
[16] = Hydrolysis in formic acid-acidified (0.05%) HPLC eluent; type: physicochemical; conditions: compared with rifampicin
Experimental: Compound stock solutions were diluted to 2 mM in DMSO and injected into an Agilent 1100 HPLC system using the following conditions for separation: Phenomenex Gemini C18 column, 3×50 mm; flow rate 0.45 ml/min; gradient 5-95% acetonitrile in water over 8 min with all solvents containing 0.05% formic acid. Detection used the following: UV detector—Agilent diode array, monitored at 214 and 254 nm; mass spectrometry detector (MSD)—Agilent MSD, electrospray ionization, positive mode.
The chromatographic separation of TPR-1 is given in FIGS. 15A to C. • There are four peaks (4.462 min, 4.951 min, 5.657 min, 6.679 min) at 214 nm and 254 nm diode array UV detection • No other significant peaks are seen • The two main peaks (4.951 min, 5.657 min) stem from the two discernible, coexisting ionic forms of the rifamycin.
[drawing 32] • In the above picture the left formula is zwitterionic, whereas the right formula is cationic. The zwitterionic form elutes at 4.951 min, since it is more polar, and the cationic form elutes at 5.657 min, since it is more lipophilic. The cationic form was integrated by IDRI as 59%. So the cationic form dominates in the formic acid-acidified (0.05%) HPLC eluent, as to be expected • The two small side peaks stem from hydrolysis of TPR-1 by the formic acid-acidified (0.05%) HPLC eluent. This is a phenomenon well-known for rifampcin (Ref. 2). […]

B. subtilis = assay: Agar Disk Diffusion Assay with B. subtilis; type: cell-based, Bacillus subtilis
[17] = tested on: Human Hepatitis B Virus Subtype ayw; assay: In vitro antiviral activity versus HBV ayw replication, RT-qPCR; type: cell-based; conditions: HepG2 2.2.15
HepG2 2.2.15 = assay: Host cytotoxicity in HBV assay; conditions: HepG2 2.2.15; rows of RT-qPCR assay
[18] = tested on: Human Hepatitis B Virus Subtype ayw; assay: In vitro antiviral activity versus HBV ayw replication, DNA (Southern) hybridization; type: cell-based; conditions: HepG2 2.2.15
[19] = Host cytotoxicity in HBV assay; conditions: human, HepG2 2.2.15 cells
[20] = strain H37Rv, read-out: Minimal inhibitory concentration 99% (MIC99) in nmol/Liter
[21] = strain H37Rv, read-out: Minimal inhibitory concentration 99% (MIC99) in μg/ml

Tetrakis{3-[(tricyclo[3.3.1.1^3,7]decan-1-ammonio)methyl]benzyl}ammonium pentachloride [PT162]
Cytotoxicity to cancer cells (cancer cells): extremely cytotoxic to cancer cells

(11,17)-17-Hydroperoxy-11-[3,4-(methylenedioxy)phenyl]-17-(1-propyn-1-yl)estra-4,9-dien-3-one-(11,17)-17-hydroxy-11-[3,4-(methylenedioxy)phenyl]-17-(1-propyn-1-yl)estra-4,9-dien-3-one (1:1) [PT157]
Luciferase activity (suppression of inflammation) (NF-κB): dose dependent decrease of luciferase activity

CO[C@H]1/C=C/O[C@@]2(C)Oc3c(C)c(O)c4c(O)c(c(/C=N/N5CCN(C)CC5)c(O)c4c3C2=O)NC(=O)/C(C)=C\C=C\[C@H](C)[C@H](O)[C@@H](C)[C@@H](O)[C@@H](C)[C@H](OC(C)=O)[C@@H]1C [Rifampicin, reference compound]
MIC99 ([1]; H37RV, read-out: Minimal inhibitory concentration 99% (MIC99) in nmol/Liter (nM)): 72.7 nM
MIC99 ([1]; H37RV, read-out: Minimal inhibitory concentration 99% (MIC99) in μg/ml): 0.06 µg/mL

CO[C@H]1/C=C/O[C@@]2(C)Oc3c(C)c(O)c4c(O)c(c(/C=N/O)c(O)c4c3C2=O)NC(=O)/C(C)=C\C=C\[C@H](C)[C@H](O)[C@@H](C)[C@@H](O)[C@@H](C)[C@H](OC(C)=O)[C@@H]1C [OR-1, 3-Formylrifamycin SV (E)-oxime 1.2 hydrate]
MIC (μg/ml) reference 1 (1966) [2]: 10 µg/mL
MIC (μg/ml) reference 2 (1974) [2]: 10 µg/mL
MIC (μg/ml) reference 1 (1966) [3]: 5 µg/mL
MIC (μg/ml) reference 2 (1974) [3]: 5 µg/mL
MIC (μg/ml) reference 1 (1966) [4]: 20 µg/mL
MIC (μg/ml) reference 2 (1974) [4]: 20 µg/mL
MIC99 [1, 20]: 787 nM
MIC99 [1, 21]: 0.6 µg/mL
Oral bioavailability [5]: orally bioavailable
MIC (μg/ml) reference 1 (1966) [6]: 0.01 µg/mL
MIC (μg/ml) reference 2 (1974) [6]: 0.01 µg/mL
MIC (μg/ml) reference 2 (1974) [7]: 0.01 µg/mL
MIC (μg/ml) reference 1 (1966) [8]: 0.02 µg/mL
MIC (μg/ml) reference 2 (1974) [9]: 0.02 µg/mL
MIC (μg/ml) reference 1 (1966) [10]: 10 µg/mL
MIC (μg/ml) reference 2 (1974) [10]: 10 µg/mL
In vivo lethal dose 50% (LD50) (mg/kg) intravenous in mice [11]: 690 mg/kg
In vivo effective dose 50% (ED50) (mg/kg) in curing Staphylococcus aureus infection in mice, per os [12]: 5.66 mg/kg
In vivo effective dose 50% (ED50) (mg/kg) in curing Staphylococcus aureus infection in mice, subcutaneous [12]: 2.46 mg/kg
MIC (μg/ml) reference 2 (1974) [13]: >100 µg/mL
MIC (μg/ml) reference 1 (1966) [14]: 5 µg/mL
MIC (μg/ml) reference 2 (1974) [14]: 5 µg/mL

CO[C@H]1/C=C/O[C@@]2(C)Oc3c(C)c(O)c4c(O)c(c(/C=N/N5CC[N+](C)(CC#C[Si](C)(C)C)CC5)c([O-])c4c3C2=O)NC(=O)/C(C)=C\C=C\[C@H](C)[C@H](O)[C@@H](C)[C@@H](O)[C@@H](C)[C@H](OC(C)=O)[C@@H]1C [TPR-1, Nω[3-(Trimethylsilyl)prop-2-yn-1-yl]rifampicinium-4-olate×¾ HBr×H2O]
Oxidation by atmospheric oxygen [15]: not oxidized by atmospheric oxygen; also recorded: resistant to oxidation
Stability towards hydrolysis and UV light [15]: enhanced stability towards hydrolysis and UV light
MIC99 [1, 20]: 19.8 to 39.5 nM
MIC99 [1, 21]: 0.02 to 0.04 µg/mL
Activity versus Bacillus megaterium (Bacillus megaterium): highly active
Susceptibility to hydrolysis of the hydrazone imine group in acidic media [16]: more susceptible to this hydrolysis than rifampicin
Activity versus Bacillus subtilis (B. subtilis): highly active
zone of inhibition at 1 µg/disc (B. subtilis; Bacillus subtilis, paper disc with 1 μg, overnight at 30° C., read-out: Clearance zones (in mm)): 18.3 mm
zone of inhibition at 10 µg/disc (B. subtilis; Bacillus subtilis, paper disc with 10 μg, overnight at 30° C., read-out: Clearance zones (in mm)): 21.1 mm
Luciferase activity (suppression of inflammation) (NF-κB): dose dependent decrease of luciferase activity

CO/N=C/c1c2c(O)c3c(O)c(C)c4c(c3c1O)C(=O)[C@@](C)(O/C=C/[C@H](OC)[C@@H](C)[C@@H](OC(C)=O)[C@H](C)[C@H](O)[C@H](C)[C@@H](O)[C@@H](C)/C=C/C=C(/C)C(=O)N2)O4 [MR-1, (2S,12Z,14E,16S,17S,18R,19R,20R,21S,22R,23S,24E)-21-(acetyloxy)-5,6,9,17,19-pentahydroxy-23-methoxy-8-[(E)-(methoxyimino)methyl]-2,4,12,16,18,20,22-heptamethyl-2,7-(epoxypentadeca[1,11,13]trienimino)naphtho[2,1-b]furan-1,11(2H)-dione]
MIC (μg/ml) reference 1 (1966) [2]: 2 µg/mL (≈ 2.65 µM)
MIC (μg/ml) reference 2 (1974) [2]: 2 µg/mL (≈ 2.65 µM)
MIC (μg/ml) reference 1 (1966) [3]: 0.1 µg/mL (≈ 0.132 µM)
MIC (μg/ml) reference 2 (1974) [3]: 0.05 µg/mL (≈ 0.0662 µM)
MIC (μg/ml) reference 1 (1966) [4]: 10 µg/mL (≈ 13.2 µM)
MIC (μg/ml) reference 2 (1974) [4]: 10 µg/mL (≈ 13.2 µM)
MIC99 [1, 20]: 106 nM
MIC99 [1, 21]: 0.08 µg/mL
Oral bioavailability [5]: more orally bioavailable than OR-1
MIC (μg/ml) reference 1 (1966) [6]: 0.01 µg/mL (≈ 0.0132 µM)
MIC (μg/ml) reference 2 (1974) [6]: 0.01 µg/mL (≈ 0.0132 µM)
MIC (μg/ml) reference 2 (1974) [7]: 0.01 µg/mL (≈ 0.0132 µM)
MIC (μg/ml) reference 1 (1966) [8]: 0.0005 µg/mL (≈ 0.000662 µM)
MIC (μg/ml) reference 2 (1974) [9]: 0.002 µg/mL (≈ 0.00265 µM)
MIC (μg/ml) reference 1 (1966) [10]: 10 µg/mL (≈ 13.2 µM)
MIC (μg/ml) reference 2 (1974) [10]: 10 µg/mL (≈ 13.2 µM)
In vivo lethal dose 50% (LD50) (mg/kg) intravenous in mice [11]: 152 mg/kg
In vivo effective dose 50% (ED50) (mg/kg) in curing Staphylococcus aureus infection in mice, per os [12]: 0.53 mg/kg
In vivo effective dose 50% (ED50) (mg/kg) in curing Staphylococcus aureus infection in mice, subcutaneous [12]: 0.87 mg/kg
MIC (μg/ml) reference 2 (1974) [13]: >100 µg/mL
MIC (μg/ml) reference 1 (1966) [14]: 5 µg/mL (≈ 6.62 µM)
MIC (μg/ml) reference 2 (1974) [14]: 5 µg/mL (≈ 6.62 µM)

⅓(11β,17β)-17-Hydroxy-11-[3,4-(methylenedioxy)phenyl]-17-(1-propyn-1-yl)estra-4,9-dien-3-one (PT150)×(2EZ)-2-{(11β,17β)-17-hydroxy-11-[3,4-(methylenedioxy)phenyl]-17-(1-propyn-1-yl)estra-4,9-dien-3-ylidene}hydrazinecarbothioamide [71.8% (E), 28.2% (Z)]×⅓ H2O× 7/9 acetone [PT155]
Solubility in organic solvents (Solubility; ethanol, acetone, DMSO, DMF, ethyl acetate, and chloroform): very soluble
Solubility in water (Solubility; water): not soluble in water initially
EC50 [17]: 10.8 µM
EC90 [17]: > 100 µM
Luciferase activity (suppression of inflammation) (NF-κB): dose dependent decrease of luciferase activity
CC50 (HepG2 2.2.15): > 100 µM

Nc1ccn([C@@H]2CS[C@H](CO)O2)c(=O)n1 [Lamivudine]
EC50 [18]: 0.026 µM
EC90 [18]: 0.116 µM
CC50 [19]: 2190 µM

Source: patent publication US11702443B2, “Therapeutic agents and methods” (Pop Test Oncology LLC, priority 2016, dated 2023)
